From publication PMC4175002, “The Design and Synthesis of Potent and Selective Inhibitors of Trypanosoma brucei Glycogen Synthase Kinase 3 for the Treatment of Human African Trypanosomiasis” (Journal of Medicinal Chemistry, 2014)
pEC50: −log10 of the molar value.

Legend:
AMPK = assay: Mammalian kinase profiling (DSTT panel); assay type: biochemical, human; conditions: 10 μM; average percentage of remaining activity
Protocol: (§1) To assess the selectivity of the aminopyrazole inhibitors, remaining activity at 10 μM concentration was measured for compounds 4f, 4m, and 4y against a panel of 80 human PKs and for compound 9g against 124 human PKs. […] Compound 4m inhibited only two PKs, namely GSK3β and CDK2, at more than 80%.
(§2) Selected compounds were screened against a panel of mammalian kinases routinely run by the Division of Signal Transduction Therapy (DSTT) at the University of Dundee in duplicate at 10 μM.[32] Enzymes included in the panel and assay conditions are reported in the literature. All biochemical assays are run below the Km^app for the ATP for each enzyme, allowing comparison of inhibition across the panel.

PKC zeta = molecular target: T1, PKC zeta (Homo sapiens, UniProt Q05513); assay: Mammalian kinase profiling (DSTT panel); assay type: biochemical; conditions: 10 μM; average percentage of remaining activity
T1 construct: purchased Division of Signal Transduction Therapy (DSTT), University of Dundee

MARK3 = molecular target: T2, MARK3 (Homo sapiens, UniProt P27448); assay: Mammalian kinase profiling (DSTT panel); assay type: biochemical; conditions: 10 μM; average percentage of remaining activity
T2 construct: purchased Division of Signal Transduction Therapy (DSTT), University of Dundee

IKKe = molecular target: T3, IKKe (Homo sapiens, UniProt Q14164); assay: Mammalian kinase profiling (DSTT panel); assay type: biochemical; conditions: 10 μM; average percentage of remaining activity
T3 construct: purchased Division of Signal Transduction Therapy (DSTT), University of Dundee

TBK1 = molecular target: T4, TBK1 (Homo sapiens, UniProt Q9UHD2); assay: Mammalian kinase profiling (DSTT panel); assay type: biochemical; conditions: 10 μM; average percentage of remaining activity
T4 construct: purchased Division of Signal Transduction Therapy (DSTT), University of Dundee

EF2K = molecular target: T5, EF2K (Homo sapiens, UniProt O00418); assay: Mammalian kinase profiling (DSTT panel); assay type: biochemical; conditions: 10 μM; average percentage of remaining activity
T5 construct: purchased Division of Signal Transduction Therapy (DSTT), University of Dundee
T5 sequence (O00418 whole entry): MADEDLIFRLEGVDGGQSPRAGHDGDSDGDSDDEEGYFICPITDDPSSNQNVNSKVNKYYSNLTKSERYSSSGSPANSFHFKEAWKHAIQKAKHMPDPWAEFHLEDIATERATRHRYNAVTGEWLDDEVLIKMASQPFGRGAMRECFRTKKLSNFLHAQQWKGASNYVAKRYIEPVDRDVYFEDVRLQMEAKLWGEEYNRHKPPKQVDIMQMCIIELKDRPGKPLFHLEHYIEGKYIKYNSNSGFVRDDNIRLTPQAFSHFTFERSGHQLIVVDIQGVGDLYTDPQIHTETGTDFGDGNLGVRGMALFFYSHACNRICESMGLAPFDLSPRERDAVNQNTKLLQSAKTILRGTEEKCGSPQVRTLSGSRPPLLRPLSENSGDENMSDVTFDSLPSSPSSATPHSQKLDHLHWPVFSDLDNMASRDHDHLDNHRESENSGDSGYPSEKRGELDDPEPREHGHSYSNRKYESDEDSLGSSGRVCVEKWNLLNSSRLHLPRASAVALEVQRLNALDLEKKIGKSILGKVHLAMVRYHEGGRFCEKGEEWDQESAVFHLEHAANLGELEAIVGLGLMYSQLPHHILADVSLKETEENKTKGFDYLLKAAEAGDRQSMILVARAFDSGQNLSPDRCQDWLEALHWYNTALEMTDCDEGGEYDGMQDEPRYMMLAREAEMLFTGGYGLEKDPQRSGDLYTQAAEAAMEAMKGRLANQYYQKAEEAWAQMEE

NEK6 = molecular target: T6, NEK6 (Homo sapiens, UniProt Q9HC98); assay: Mammalian kinase profiling (DSTT panel); assay type: biochemical; conditions: 10 μM; average percentage of remaining activity
T6 construct: purchased Division of Signal Transduction Therapy (DSTT), University of Dundee

PAK6 = molecular target: T7, PAK6 (Homo sapiens, UniProt Q9NQU5); assay: Mammalian kinase profiling (DSTT panel); assay type: biochemical; conditions: 10 μM; average percentage of remaining activity
T7 construct: purchased Division of Signal Transduction Therapy (DSTT), University of Dundee
T7 sequence (Q9NQU5 whole entry): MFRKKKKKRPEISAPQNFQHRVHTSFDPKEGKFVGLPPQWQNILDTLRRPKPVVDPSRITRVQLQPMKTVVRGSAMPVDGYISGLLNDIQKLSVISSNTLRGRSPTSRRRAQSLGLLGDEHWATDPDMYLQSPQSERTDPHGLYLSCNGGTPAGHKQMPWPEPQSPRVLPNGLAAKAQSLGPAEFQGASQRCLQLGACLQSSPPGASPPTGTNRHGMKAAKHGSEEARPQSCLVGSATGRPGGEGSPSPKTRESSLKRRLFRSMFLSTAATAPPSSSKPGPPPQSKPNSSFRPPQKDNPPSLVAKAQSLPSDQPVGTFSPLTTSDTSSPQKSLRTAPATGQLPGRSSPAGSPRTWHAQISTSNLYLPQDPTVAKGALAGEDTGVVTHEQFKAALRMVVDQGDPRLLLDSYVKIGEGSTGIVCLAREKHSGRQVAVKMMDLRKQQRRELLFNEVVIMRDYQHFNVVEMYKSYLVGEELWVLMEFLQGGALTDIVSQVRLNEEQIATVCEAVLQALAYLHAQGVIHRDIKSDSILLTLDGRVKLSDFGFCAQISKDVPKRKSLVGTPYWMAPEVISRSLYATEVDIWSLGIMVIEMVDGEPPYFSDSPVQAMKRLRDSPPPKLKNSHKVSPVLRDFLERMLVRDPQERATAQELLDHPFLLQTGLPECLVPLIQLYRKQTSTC

CSK = molecular target: T8, CSK (Homo sapiens, UniProt P41240); assay: Mammalian kinase profiling (DSTT panel); assay type: biochemical; conditions: 10 μM; average percentage of remaining activity
T8 construct: purchased Division of Signal Transduction Therapy (DSTT), University of Dundee
T8 sequence (P41240 whole entry): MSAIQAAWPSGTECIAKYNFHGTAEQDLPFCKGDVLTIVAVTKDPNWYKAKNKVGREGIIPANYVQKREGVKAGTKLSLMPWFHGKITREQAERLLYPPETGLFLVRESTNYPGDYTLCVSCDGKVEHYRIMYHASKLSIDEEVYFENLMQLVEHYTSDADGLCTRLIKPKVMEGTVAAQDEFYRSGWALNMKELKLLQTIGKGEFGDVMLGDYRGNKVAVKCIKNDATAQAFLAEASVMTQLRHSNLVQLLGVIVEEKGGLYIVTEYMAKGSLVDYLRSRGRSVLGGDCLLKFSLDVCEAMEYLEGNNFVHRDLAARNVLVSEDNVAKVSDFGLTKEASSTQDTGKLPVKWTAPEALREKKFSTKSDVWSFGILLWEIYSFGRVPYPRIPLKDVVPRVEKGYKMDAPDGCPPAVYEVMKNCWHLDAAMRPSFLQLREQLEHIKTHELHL

PRK2 = molecular target: T9, PRK2 (Homo sapiens, UniProt Q16513); assay: Mammalian kinase profiling (DSTT panel); assay type: biochemical; conditions: 10 μM; average percentage of remaining activity
T9 construct: purchased Division of Signal Transduction Therapy (DSTT), University of Dundee

RSK2 = molecular target: T10, RSK2 (Homo sapiens, UniProt P51812); assay: Mammalian kinase profiling (DSTT panel); assay type: biochemical; conditions: 10 μM; average percentage of remaining activity
T10 construct: purchased Division of Signal Transduction Therapy (DSTT), University of Dundee

PKBa = molecular target: T11, PKBa (Homo sapiens, UniProt P31749); assay: Mammalian kinase profiling (DSTT panel); assay type: biochemical; conditions: average percentage of remaining activity, read-out: PKBa activity compared to the control
T11 construct: purchased Division of Signal Transduction Therapy (DSTT), University of Dundee

FGF-R1 = molecular target: T12, FGF-R1 (Homo sapiens, UniProt P11362); assay: Mammalian kinase profiling (DSTT panel); assay type: biochemical; conditions: 10 μM; average percentage of remaining activity
T12 construct: purchased Division of Signal Transduction Therapy (DSTT), University of Dundee
T12 sequence (P11362 22-822): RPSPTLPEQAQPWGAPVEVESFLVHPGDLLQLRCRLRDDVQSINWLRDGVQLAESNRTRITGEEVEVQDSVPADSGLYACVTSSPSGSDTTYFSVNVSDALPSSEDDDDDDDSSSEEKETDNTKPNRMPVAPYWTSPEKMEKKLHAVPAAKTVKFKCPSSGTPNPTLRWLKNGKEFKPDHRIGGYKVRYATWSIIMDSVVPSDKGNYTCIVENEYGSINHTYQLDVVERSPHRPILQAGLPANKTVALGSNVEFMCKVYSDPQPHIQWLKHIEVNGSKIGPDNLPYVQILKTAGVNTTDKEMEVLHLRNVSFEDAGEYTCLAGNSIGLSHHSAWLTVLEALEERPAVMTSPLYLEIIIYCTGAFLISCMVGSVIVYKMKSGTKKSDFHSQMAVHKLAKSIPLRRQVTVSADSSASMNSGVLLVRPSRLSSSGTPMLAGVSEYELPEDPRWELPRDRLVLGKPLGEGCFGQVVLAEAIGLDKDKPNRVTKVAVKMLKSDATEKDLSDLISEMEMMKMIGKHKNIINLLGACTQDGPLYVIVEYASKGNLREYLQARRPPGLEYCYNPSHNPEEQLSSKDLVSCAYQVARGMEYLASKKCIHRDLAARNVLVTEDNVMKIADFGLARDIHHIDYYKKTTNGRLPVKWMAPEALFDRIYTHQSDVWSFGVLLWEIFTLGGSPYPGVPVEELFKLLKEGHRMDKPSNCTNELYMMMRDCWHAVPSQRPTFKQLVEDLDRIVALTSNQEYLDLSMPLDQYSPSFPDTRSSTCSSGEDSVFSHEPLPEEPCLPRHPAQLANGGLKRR

P38s MAPK = molecular target: T13, P38s MAPK (Homo sapiens, UniProt O15264); assay: Mammalian kinase profiling (DSTT panel); assay type: biochemical; conditions: 10 μM; average percentage of remaining activity
T13 construct: purchased Division of Signal Transduction Therapy (DSTT), University of Dundee
T13 sequence (O15264 whole entry): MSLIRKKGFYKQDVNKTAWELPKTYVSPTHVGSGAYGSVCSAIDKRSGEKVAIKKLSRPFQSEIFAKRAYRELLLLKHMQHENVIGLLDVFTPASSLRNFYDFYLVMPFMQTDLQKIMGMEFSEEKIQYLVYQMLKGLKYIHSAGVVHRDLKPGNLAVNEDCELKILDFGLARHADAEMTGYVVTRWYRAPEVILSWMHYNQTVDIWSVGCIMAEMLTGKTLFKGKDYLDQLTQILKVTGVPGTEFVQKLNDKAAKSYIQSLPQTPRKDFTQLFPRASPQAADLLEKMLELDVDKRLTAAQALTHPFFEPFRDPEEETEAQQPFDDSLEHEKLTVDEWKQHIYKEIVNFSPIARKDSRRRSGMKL

Aurora B = molecular target: T14, Aurora B (Homo sapiens, UniProt Q96GD4); assay: Mammalian kinase profiling (DSTT panel); assay type: biochemical; conditions: 10 μM; average percentage of remaining activity
T14 construct: purchased Division of Signal Transduction Therapy (DSTT), University of Dundee
T14 sequence (Q96GD4 whole entry): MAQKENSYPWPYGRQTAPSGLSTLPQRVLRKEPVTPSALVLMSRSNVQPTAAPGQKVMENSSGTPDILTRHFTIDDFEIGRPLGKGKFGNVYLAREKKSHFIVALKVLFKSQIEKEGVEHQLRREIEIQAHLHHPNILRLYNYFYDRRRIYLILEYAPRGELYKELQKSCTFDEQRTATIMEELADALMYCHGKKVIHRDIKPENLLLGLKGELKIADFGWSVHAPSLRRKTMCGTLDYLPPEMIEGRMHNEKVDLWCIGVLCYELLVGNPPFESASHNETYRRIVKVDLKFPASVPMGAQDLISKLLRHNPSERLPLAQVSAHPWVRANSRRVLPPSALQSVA

PHK = molecular target: T15, PHK (Homo sapiens, UniProt Q16816); assay: Mammalian kinase profiling (DSTT panel); assay type: biochemical; conditions: 10 μM; average percentage of remaining activity
T15 construct: purchased Division of Signal Transduction Therapy (DSTT), University of Dundee
T15 sequence (Q16816 whole entry): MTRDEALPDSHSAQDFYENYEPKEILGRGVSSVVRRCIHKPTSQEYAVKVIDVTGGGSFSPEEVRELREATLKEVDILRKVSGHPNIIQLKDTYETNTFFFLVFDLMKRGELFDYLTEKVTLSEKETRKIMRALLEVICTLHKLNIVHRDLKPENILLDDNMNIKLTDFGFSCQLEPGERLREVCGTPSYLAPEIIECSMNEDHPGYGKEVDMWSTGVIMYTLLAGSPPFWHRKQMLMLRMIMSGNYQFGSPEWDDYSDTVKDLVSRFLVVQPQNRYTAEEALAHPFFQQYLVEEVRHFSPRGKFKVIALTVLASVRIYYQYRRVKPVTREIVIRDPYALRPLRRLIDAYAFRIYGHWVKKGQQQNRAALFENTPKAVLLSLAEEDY

PLK1 = molecular target: T16, PLK1 (Homo sapiens, UniProt P53350); assay: Mammalian kinase profiling (DSTT panel); assay type: biochemical; conditions: 10 μM; average percentage of remaining activity
T16 construct: purchased Division of Signal Transduction Therapy (DSTT), University of Dundee

BRSK2 = molecular target: T17, BRSK2 (Homo sapiens, UniProt Q8IWQ3); assay: Mammalian kinase profiling (DSTT panel); assay type: biochemical; conditions: 10 μM; average percentage of remaining activity
T17 construct: purchased Division of Signal Transduction Therapy (DSTT), University of Dundee
T17 sequence (Q8IWQ3 whole entry): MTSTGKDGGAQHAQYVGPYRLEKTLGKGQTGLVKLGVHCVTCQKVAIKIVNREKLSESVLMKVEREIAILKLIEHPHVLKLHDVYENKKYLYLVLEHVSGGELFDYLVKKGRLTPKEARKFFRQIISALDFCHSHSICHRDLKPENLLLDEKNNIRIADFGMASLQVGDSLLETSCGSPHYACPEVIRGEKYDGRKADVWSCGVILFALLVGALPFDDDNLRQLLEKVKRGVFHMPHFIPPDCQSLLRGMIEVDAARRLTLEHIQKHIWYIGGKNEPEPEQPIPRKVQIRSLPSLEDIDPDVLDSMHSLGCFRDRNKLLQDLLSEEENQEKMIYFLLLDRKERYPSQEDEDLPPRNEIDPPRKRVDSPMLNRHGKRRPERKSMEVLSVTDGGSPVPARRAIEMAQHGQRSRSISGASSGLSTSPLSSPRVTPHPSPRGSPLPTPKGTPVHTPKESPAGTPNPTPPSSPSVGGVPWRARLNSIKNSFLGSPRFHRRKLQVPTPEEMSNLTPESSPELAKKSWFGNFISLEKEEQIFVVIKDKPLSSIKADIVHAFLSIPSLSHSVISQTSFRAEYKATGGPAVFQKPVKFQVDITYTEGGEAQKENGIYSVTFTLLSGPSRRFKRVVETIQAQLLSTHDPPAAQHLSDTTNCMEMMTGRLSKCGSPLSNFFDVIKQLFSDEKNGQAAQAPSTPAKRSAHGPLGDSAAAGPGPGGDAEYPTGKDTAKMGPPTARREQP

CHK1 = molecular target: T18, CHK1 (Homo sapiens, UniProt O14757); assay: Mammalian kinase profiling (DSTT panel); assay type: biochemical; conditions: 10 μM; average percentage of remaining activity
T18 construct: purchased Division of Signal Transduction Therapy (DSTT), University of Dundee

MNK2 = molecular target: T19, MNK2 (Homo sapiens, UniProt Q9HBH9); assay: Mammalian kinase profiling (DSTT panel); assay type: biochemical; conditions: 10 μM; average percentage of remaining activity
T19 construct: purchased Division of Signal Transduction Therapy (DSTT), University of Dundee
T19 sequence (Q9HBH9 whole entry): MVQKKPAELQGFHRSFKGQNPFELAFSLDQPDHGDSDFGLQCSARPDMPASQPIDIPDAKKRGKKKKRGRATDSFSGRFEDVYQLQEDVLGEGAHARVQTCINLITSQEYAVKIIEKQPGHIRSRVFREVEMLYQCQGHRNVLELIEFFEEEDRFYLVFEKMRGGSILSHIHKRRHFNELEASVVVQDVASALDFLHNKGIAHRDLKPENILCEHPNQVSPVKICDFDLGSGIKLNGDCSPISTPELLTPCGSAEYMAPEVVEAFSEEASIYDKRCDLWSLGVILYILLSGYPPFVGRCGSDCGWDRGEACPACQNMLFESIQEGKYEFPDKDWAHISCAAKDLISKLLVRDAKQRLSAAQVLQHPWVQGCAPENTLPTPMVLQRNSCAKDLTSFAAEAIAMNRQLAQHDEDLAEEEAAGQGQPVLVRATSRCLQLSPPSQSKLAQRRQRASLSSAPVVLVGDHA

panel of 80 human PKs = assay: Mammalian kinase profiling, whole panel (4f, 4m, 4y); assay type: biochemical; conditions: 10 μM
Protocol: as §1, §2

CDK2 = molecular target: T20, CDK2 (Homo sapiens, UniProt P24941); assay: Mammalian kinase profiling (DSTT panel); assay type: biochemical
T20 construct: purchased Division of Signal Transduction Therapy (DSTT), University of Dundee

GSK3b = molecular target: T21, GSK3b (Homo sapiens, UniProt P49841); assay: Mammalian kinase profiling (DSTT panel); assay type: biochemical; conditions: read-out: inhibition of GSK3β
T21 construct: purchased Division of Signal Transduction Therapy (DSTT), University of Dundee

[1] = system: bloodstream form T. b. brucei; assay: Trypanosome proliferation assay (resazurin); assay type: cell-based; conditions: Trypanosoma brucei, 72 h, concentration required to inhibit growth in culture by 50% over 72 h
Protocol: Measurement of inhibition of the proliferation of MRC5 (human lung fibroblast) cells and T. b. brucei bloodstream stage cells was performed using a modification of the cell viability assay previously described.[33] Compounds (50 μM to 0.5 nM) were incubated with 2 × 10^3 cells/well in 0.2 mL of the appropriate culture medium (MEM with 10% fetal bovine serum for MRC5 cells) in clear 96-well plates. Plates were incubated at 37 °C in the presence of 5% CO2 for 69 h. Resazurin was then added to a final concentration of 50 μM, and plates were incubated as above for a further 4 h before being read on a BioTek flx800 fluorescent plate reader.

P38b MAPK = molecular target: T22, P38b MAPK (Homo sapiens, UniProt Q15759); assay: Mammalian kinase profiling (DSTT panel); assay type: biochemical; conditions: 10 μM; average percentage of remaining activity
T22 construct: purchased Division of Signal Transduction Therapy (DSTT), University of Dundee

HsCDK2/cyclin A = HsCDK2/cyclin A (Homo sapiens, UniProt P24941); assay: Radiometric Flashplate potency assay, HsCDK2/cyclin A; assay type: biochemical; conditions: ratio of IC50 values
Protocol: For compound potency determinations, a radiometric 96-well Flashplate assay (PerkinElmer) was adopted. Compounds were solubilized in DMSO at a top concentration of 3 mM and serially diluted to achieve 10-point titration of final assay concentrations from 30 μM to 0.3 nM with a final DMSO concentration of 1% (v/v). The reaction mixtures contained 1 μM biotinylated GSP2 substrate, 1 μM ATP, 3.7 KBq/well [γ-33P]-ATP and 2.5 nM TbGSK3 in the TbGSK3 kinase assay buffer. GSK3 inhibitors were screened for selectivity assessment also against HsGSK3β. For HsGSK3 assay, the reaction mixes contained 1 μM biotinylated GSP2 substrate, 2 μM ATP, 7.4 KBq/well [γ-33P]-ATP and 15 nM HsGSK3β in the TbGSK3 kinase assay buffer (25 mM Tris-HCl, pH 7.5, 10 mM MgCl2, 5 mM DTT, 0.02% CHAPS, 2 U/mL heparin). For HsCDK2/cyclin A assay, the reaction mixtures contained 1 mM CDK5 biotinylated peptide substrate (Biotin-C6-PKTPKKAKKL), 1 μM ATP, 7.4 KBq/well [γ-^33P]-ATP and 2 nM HsCDK2/cyclin A in the kinase assay buffer (50 mM Tris-HCl, pH 7.5, 10 mM MgCl2, 2 mM DTT, 100 mM NaCl, 0.2 mM EGTA, 0.02% (v/v) Brij35).
For the HsCDK2 assay, the analysis was performed using two different standards (GW8510 and staurosporine) tested respectively five times in a single run and 19 times in 2 independent runs. This implies that a difference of >0.3 in pIC50 can be considered statistically significant for this assay.

| SMILES | AMPK activity compared to the control (AMPK) [%] | PKC zeta activity compared to the control (PKC zeta) [%] | MARK3 activity compared to the control (MARK3) [%] | IKKe activity compared to the control (IKKe) [%] | TBK1 activity compared to the control (TBK1) [%] | EF2K activity compared to the control (EF2K) [%] | NEK6 activity compared to the control (NEK6) [%] | PAK6 activity compared to the control (PAK6) [%] | CSK activity compared to the control (CSK) [%] | FGF-R1 activity compared to the control (FGF-R1) [%] | P38s MAPK activity compared to the control (P38s MAPK) [%] | Aurora B activity compared to the control (Aurora B) [%] | PHK activity compared to the control (PHK) [%] | PLK1 activity compared to the control (PLK1) [%] | BRSK2 activity compared to the control (BRSK2) [%] | CHK1 activity compared to the control (CHK1) [%] | MNK2 activity compared to the control (MNK2) [%] | number of PKs inhibited by more than 80% (panel of 80 human PKs) | also measured |
| --- | --- | --- | --- | --- | --- | --- | --- | --- | --- | --- | --- | --- | --- | --- | --- | --- | --- | --- | --- |
| CO[C@H]1CC[C@H](NC(=O)c2n[nH]cc2NC(=O)c2ccc(-c3ccccc3)o2)CC1 [Compound 4y, N-(4-Methoxycyclohexyl)-4-(5-phenylfuran-2-carboxamido)-1H-pyrazole-3-carboxamide] | 49 | 60 | 83 | 46 | 73 | 92 | 70 | 71 | 73 | 72 | 38 | 47 | 45 | 99 | 60 | 94 | 77 |  | PRK2 activity compared to the control (PRK2): 65%; RSK2 activity compared to the control (RSK2): 93%; remaining activity at 10 µM (PKBa): 86% |
| COc1cccc(OC)c1C(=O)Nc1c[nH]nc1C(=O)NC1CCC(OC)CC1 (centres unmarked) [Compound 4m, 4-(2,6-Dimethoxybenzamido)-N-(4-methoxycyclohexyl)-1H-pyrazole-3-carboxamide] | 88 |  |  |  |  |  |  | 90 |  |  |  | 87 |  |  |  |  |  | two | inhibition at 10 µM (CDK2): > 80%; inhibition at 10 µM (GSK3b): > 80%; pEC50 [1]: > 6.00 |
| CO[C@H]1CC[C@H](NC(=O)c2n[nH]cc2NC(=O)c2ccccc2)CC1 [Compound 4f, 4-Benzamido-N-(4-methoxycyclohexyl)-1H-pyrazole-3-carboxamide] |  | 57 | 84 | 62 | 63 | 99 | 100 |  | 85 | 99 | 57 |  | 89 | 100 | 55 | 100 | 100 | seven | P38b MAPK activity compared to the control (P38b MAPK): 74%; ratio HsCDK2/TbGSK3 (HsCDK2/cyclin A): <1.6 |
